The record followed here is ChEMBL document CHEMBL1201862, “PubChem BioAssay data set” (2004).

Structures are written as SMILES.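 These data come from cells grown in 96-well plates and exposed to compound for 48 hours at five concentrations. GI50: concentration for 50% inhibition of growth.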 Calls of active or inactive are those of the source. No stated cut-off is given here; in the data, active = GI50 up to about 1.1 µM and inactive = higher. Some results are limits rather than exact numbers.

Some test systems named below: NCI-H460; MDA-N; NCI-H226; SF-539; OVCAR-4; MCF7; OVCAR-5; SW-620; HCT-15; SNB-19; HOP-92; UACC-257; TK-10; HL-60; SNB-75; Hs-578T; RXF 393; NCI-H522; NCI/ADR-RES; BT-549.
Test in all cases: NCI tumour cell line growth inhibition, 48 h

As for `N=c1oc2ccc(Cl)cc2cc1C(=O)Nc1ccccc1`, the GI50 in the experiment with NCI-H460 was > 100 µM (inactive); in the experiment with MDA-N it was > 100 µM (inactive); in the experiment on NCI-H226 it was > 100 µM (inactive); in the experiment with SF-539 it was > 65.9 µM (inactive); in the experiment on OVCAR-4, > 100 µM (inactive); in the experiment with MCF7, 19.6 µM (inactive). For the same compound, the GI50 with OVCAR-5 was > 100 µM (inactive); in the experiment on SW-620 it was > 100 µM (inactive); in the experiment with HCT-15, more than 100 µM; in the experiment on SNB-19, > 62.5 µM (inactive); with HOP-92 it was 10.5 µM (inactive); in the experiment with UACC-257 it was > 54.6 µM (inactive). Besides, the GI50 with TK-10 is > 75.2 µM (inactive); in the experiment on HL-60 it was > 100 µM (inactive); in the experiment with SNB-75, 23.6 µM (inactive); in the experiment on Hs-578T it was 15.4 µM (inactive); in the experiment with RXF 393, 26.2 µM (inactive); with NCI-H522 it was 5.11 µM (inactive). Besides, the GI50 was 17.3 µM (inactive) in the experiment on NCI/ADR-RES and > 54 µM (inactive) with BT-549.
With `CC(=O)Oc1ccc2c(C)cc(=O)oc2c1`, the GI50 in the experiment on NCI-H460, with MDA-N, in the experiment on NCI-H226, in the experiment with SF-539, in the experiment on OVCAR-4 and in the experiment on MCF7 was > 100 µM (inactive) in each case. Also, the GI50 in the experiment on OVCAR-5 is > 100 µM (inactive); in the experiment on SW-620, > 100 µM (inactive); with HCT-15, more than 100 µM; with SNB-19, > 100 µM (inactive); in the experiment with HOP-92, > 100 µM (inactive); with UACC-257, > 100 µM (inactive). The GI50 in the experiment with TK-10, in the experiment with HL-60, in the experiment with SNB-75, in the experiment on Hs-578T, with RXF 393 and in the experiment with NCI-H522 was > 100 µM (inactive) each time. Also, the GI50 with NCI/ADR-RES and in the experiment with BT-549 was > 100 µM (inactive) in each case.
For the compound `C=C1C(O)C2(O)OCC34C(CC5C(C)=CC(=O)C(O)C5(C)C23)OC(=O)C(OC(=O)C/C=C(\C)CCCCC)C14` (stereo not given), the GI50 with NCI-H460 is 0.0125 µM (active); in the experiment with MDA-N, < 0.001 µM (active); in the experiment on NCI-H226, 0.0144 µM (active); with SF-539 it was 0.0153 µM (active); in the experiment on OVCAR-4 it was 0.0125 µM (active); with MCF7, 0.0125 µM (active). For the same compound, the GI50 in the experiment on OVCAR-5 was 0.0231 µM (active); in the experiment on SW-620, 0.0153 µM (active); in the experiment on HCT-15 it was 0.0316 µM; with SNB-19, 0.0146 µM (active); with HOP-92 it was 0.0147 µM (active); in the experiment with UACC-257 it was 0.0125 µM (active). The GI50 in the experiment on TK-10 was 0.00177 µM (active); in the experiment on HL-60 it was 0.0125 µM (active); in the experiment with SNB-75 it was 0.0153 µM (active); in the experiment with Hs-578T, < 0.001 µM (active); in the experiment on RXF 393, 0.0152 µM (active); in the experiment with NCI-H522, 0.0125 µM (active). The figures for the GI50 in the experiment with NCI/ADR-RES and in the experiment on BT-549 were 0.624 µM (active) and < 0.001 µM (active), respectively.
`CCOC(=O)[C@@H](Cc1ccc(CCl)cc1)NC(C)=O`: the GI50 in the experiment on NCI-H460 was 19 µM (inactive); in the experiment with MDA-N, 19 µM (inactive); in the experiment on NCI-H226, 28.1 µM (inactive); with SF-539, 18.3 µM (inactive); in the experiment on OVCAR-4, 19.9 µM (inactive); in the experiment on MCF7, 26.1 µM (inactive). The GI50 in the experiment on OVCAR-5 is 20.6 µM (inactive); in the experiment with SW-620, 31 µM (inactive); in the experiment with HCT-15 it was 27.4 µM; in the experiment with SNB-19, 27.2 µM (inactive); in the experiment with HOP-92, 23.4 µM (inactive); in the experiment with UACC-257, 17.2 µM (inactive). In addition, the GI50 in the experiment with TK-10 is 4.71 µM (inactive); with HL-60 it was 27 µM (inactive); with SNB-75 it was 26.6 µM (inactive); in the experiment on Hs-578T it was 25.5 µM (inactive); with RXF 393 it was 14 µM (inactive); in the experiment with NCI-H522 it was 17.6 µM (inactive). For the same compound, the GI50 in the experiment on NCI/ADR-RES is 19.9 µM (inactive); in the experiment on BT-549 it was 31.1 µM (inactive).
For the compound `CCOC(=O)CCC(NC(=O)c1ccc(Nc2cnc3ccc(C(F)(F)F)cc3n2)cc1)C(=O)OCC` (stereo not given), the GI50 with NCI-H460 was 8.02 µM (inactive); with MDA-N, > 100 µM (inactive); in the experiment on NCI-H226 it was 28.1 µM (inactive); in the experiment on SF-539 it was 13.3 µM (inactive); in the experiment with OVCAR-4, 8.2 µM (inactive); in the experiment with MCF7, 27.9 µM (inactive). Also, the GI50 in the experiment with OVCAR-5 is > 100 µM (inactive); in the experiment with SW-620, > 70.6 µM (inactive); in the experiment with HCT-15, more than 100 µM; with SNB-19, 13 µM (inactive); with HOP-92 it was 8.36 µM (inactive); with UACC-257, > 74.3 µM (inactive). Also, the GI50 was 4.97 µM (inactive) with TK-10; > 100 µM (inactive) with HL-60; 8.24 µM (inactive) in the experiment on SNB-75; 6.79 µM (inactive) with Hs-578T; 15 µM (inactive) in the experiment on RXF 393; 65.6 µM (inactive) with NCI-H522. Further, the GI50 with NCI/ADR-RES was 11 µM (inactive); in the experiment on BT-549, 20.9 µM (inactive).
